Experimental data: ChEMBL document CHEMBL1201862, “PubChem BioAssay data set” (2004)
Activity calls are given as the source filed them.

Legend:
[1] = toxicity toward cultured mammalian cells – cell-based, plate reader, cherry-pick samples, cytotoxicity control, dose response (AID 504397); type: functional
CAAX prenyl protease 2 = target: T1, CAAX prenyl protease 2 (Saccharomyces cerevisiae S288c, UniProt Q03530); type: biochemical
T1 sequence (Q03530 whole entry): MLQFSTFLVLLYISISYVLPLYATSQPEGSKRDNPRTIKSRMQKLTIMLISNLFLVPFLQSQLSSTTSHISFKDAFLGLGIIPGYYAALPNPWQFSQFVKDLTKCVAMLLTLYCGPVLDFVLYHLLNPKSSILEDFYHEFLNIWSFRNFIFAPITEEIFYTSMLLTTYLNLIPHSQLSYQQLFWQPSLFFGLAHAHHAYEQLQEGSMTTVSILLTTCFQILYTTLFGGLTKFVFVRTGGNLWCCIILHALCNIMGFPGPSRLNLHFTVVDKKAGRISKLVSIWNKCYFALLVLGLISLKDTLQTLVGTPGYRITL

[2] = target: T2, Alkaline phosphatase, tissue-nonspecific isozyme (Homo sapiens, UniProt P05186); experiment: activation of tissue-nonspecific alkaline phosphatase – biochemical, TNAP isozyme, mouse IAP uHTS hits, selectivity assay for mouse IAP activator project, dose response (AID 488880); type: functional
T2 sequence (P05186 whole entry): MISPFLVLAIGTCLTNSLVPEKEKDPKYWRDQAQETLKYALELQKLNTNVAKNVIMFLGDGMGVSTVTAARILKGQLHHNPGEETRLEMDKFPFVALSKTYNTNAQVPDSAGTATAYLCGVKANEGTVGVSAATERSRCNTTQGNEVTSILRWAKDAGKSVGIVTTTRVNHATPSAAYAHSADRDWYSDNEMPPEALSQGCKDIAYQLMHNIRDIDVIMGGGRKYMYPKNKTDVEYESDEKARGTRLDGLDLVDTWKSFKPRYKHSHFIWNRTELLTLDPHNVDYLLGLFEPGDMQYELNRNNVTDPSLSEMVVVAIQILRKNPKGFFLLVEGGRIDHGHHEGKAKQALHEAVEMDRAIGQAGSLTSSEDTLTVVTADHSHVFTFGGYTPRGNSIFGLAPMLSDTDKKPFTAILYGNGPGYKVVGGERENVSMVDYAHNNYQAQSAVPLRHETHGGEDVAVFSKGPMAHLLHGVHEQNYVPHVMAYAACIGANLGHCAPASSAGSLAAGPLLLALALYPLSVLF

[3] = target: Glucose-6-phosphate 1-dehydrogenase (Homo sapiens, UniProt P11413); experiment: inhibition of Homo sapiens G6PD, dose series – biochemical, fluorescence, selectivity assay for P. falciparum G6PD inhibitor project, dose response (AID 504792); type: functional
Large T antigen = Large T antigen (Simian virus 40, UniProt P03070); type: functional, Betapolyomavirus macacae;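 also: Confirmatory-stage PubChem screen for compounds that inhibit SV40 T antigen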
[4] = target: Cyclin-dependent kinase 5/CDK5 activator 1 (Homo sapiens, UniProt Q00535); experiment: blockade of human CDK5 activity – biochemical, cherry-picked samples, set 2, dose response (AID 504545)
Fibrinogen beta chain [5] = target: T3, Fibrinogen beta chain (Homo sapiens, UniProt P02675); experiment: Fluorescence polarization-based biochemical high throughput dose response assay to identify inhibitors that disrupt the binding of a cyclic peptide (Tn6) to the fibrin proteolytic product D-Dimer and fragment E complex [DD(E )].
[6] = target: Intestinal-type alkaline phosphatase (Homo sapiens, UniProt P09923); experiment: activation of human intestinal alkaline phosphatase – biochemical, dose response (AID 488873); type: functional
[7] = target: T4, Endoribonuclease toxin MazF (Escherichia coli K-12, UniProt P0AE70); experiment: activation of MazEF endoribonuclease cleavage – biochemical, fluorescence, single-stranded RNA substrate, uHTS hits, dose response (AID 588481); type: functional
T4 sequence (P0AE70 whole entry): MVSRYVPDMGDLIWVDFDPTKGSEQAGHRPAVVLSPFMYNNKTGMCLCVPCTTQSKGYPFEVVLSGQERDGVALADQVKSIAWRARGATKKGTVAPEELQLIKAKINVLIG

[8] = target: T4, Endoribonuclease toxin MazF; experiment: substrate-only fluorescence increase artefacts – biochemical, single-stranded RNase substrate, counter-screen for MazEF activator project, dose response (AID 588502); type: functional
[9] = target: Induced myeloid leukemia cell differentiation protein Mcl-1 (Homo sapiens, UniProt Q07820); type: functional
[10] = target: Intestinal-type alkaline phosphatase (Mus musculus, UniProt P24822); experiment: mouse intestinal alkaline phosphatase activators, dose response, biochemical, luminescence, uHTS hits (AID 488783); type: functional
Genome polyprotein = Genome polyprotein (dengue virus type 2, UniProt P29990); experiment: flavivirus cap methylation enzyme inhibition – biochemical, confirmation dose response, primary screen (AID 588689); type: functional
Fibrinogen beta chain [11] = target: T3, Fibrinogen beta chain; experiment: Fluorescence polarization-based biochemical high throughput dose response assay to identify inhibitors that disrupt the binding of a cyclic peptide (Tn7) to the fibrin proteolytic product D-Dimer and fragment E complex [DD(E )].
Major prion protein = Major prion protein (Homo sapiens, UniProt P04156); type: functional, cell-based
[12] = target: T5, Tyrosine-protein phosphatase non-receptor type 7 (Homo sapiens, UniProt P35236); experiment: inhibition of hematopoietic tyrosine phosphatase HePTP – biochemical, set 2, SAR follow-up (AID 449736); type: functional
T5 sequence (P35236 whole entry): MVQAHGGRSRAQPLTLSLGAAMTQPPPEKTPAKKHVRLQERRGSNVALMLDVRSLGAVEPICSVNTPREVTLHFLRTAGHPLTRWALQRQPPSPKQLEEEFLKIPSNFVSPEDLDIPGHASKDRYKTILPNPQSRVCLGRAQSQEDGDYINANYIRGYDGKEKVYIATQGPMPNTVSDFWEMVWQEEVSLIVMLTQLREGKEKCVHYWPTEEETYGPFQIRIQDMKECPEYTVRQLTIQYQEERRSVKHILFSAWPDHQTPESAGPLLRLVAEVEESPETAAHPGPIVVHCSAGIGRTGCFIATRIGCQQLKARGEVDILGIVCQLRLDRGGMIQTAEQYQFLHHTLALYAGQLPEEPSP

Cannabinoid receptor 1 [13] = target: T6, Cannabinoid receptor 1 (Homo sapiens, UniProt P21554); experiment: SAR analysis of antagonists of the Cannabinoid Receptor 1 using an Image-Based Assay - Set 4. [Related pubchem assays (depositor defined):AID2013, AID2026]; type: functional
Cannabinoid receptor 2 [14] = target: T7, Cannabinoid receptor 2 (Homo sapiens, UniProt P34972); experiment: SAR analysis of agonists of the Cannabinoid Receptor 2 using an Image-Based Assay - Set 3. [Related pubchem assays (depositor defined):AID2013, AID2026]; type: functional
[15] = target: T8, G-protein coupled receptor 35 (Homo sapiens, UniProt Q9HC97); experiment: SAR analysis of Agonists of the GPR35 Receptor using an Image-Based Assay - Set 4. [Related pubchem assays (depositor defined):AID2013, AID2026]; type: functional
[16] = target: T8, G-protein coupled receptor 35; experiment: SAR analysis of Antagonists of the GPR35 Receptor using an Image-Based Assay - Set 6. [Related pubchem assays (depositor defined):AID2013, AID2026]; type: functional
Cannabinoid receptor 1 [17] = target: T6, Cannabinoid receptor 1; experiment: SAR analysis of agonists of the Cannabinoid Receptor 1 using an Image-Based Assay - Set 4. [Related pubchem assays (depositor defined):AID2013, AID2026]; type: functional
Cannabinoid receptor 2 [18] = target: T7, Cannabinoid receptor 2; experiment: SAR analysis of antagonists of the Cannabinoid Receptor 2 using an Image-Based Assay - Set 3. [Related pubchem assays (depositor defined):AID2013, AID2026]; type: functional
[19] = target: G-protein coupled receptor 55 (Homo sapiens, UniProt Q9Y2T6); experiment: SAR Analysis of Selective Antagonists of GPR55 using an Image-Based Assay - Set 4. [Related pubchem assays (depositor defined):AID2013, AID2026]; type: functional;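 also: antagonism of response to 5 µM lysophosphatidylinositol agonist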
Sequence of G-protein coupled receptor 55 (Q9Y2T6 whole entry): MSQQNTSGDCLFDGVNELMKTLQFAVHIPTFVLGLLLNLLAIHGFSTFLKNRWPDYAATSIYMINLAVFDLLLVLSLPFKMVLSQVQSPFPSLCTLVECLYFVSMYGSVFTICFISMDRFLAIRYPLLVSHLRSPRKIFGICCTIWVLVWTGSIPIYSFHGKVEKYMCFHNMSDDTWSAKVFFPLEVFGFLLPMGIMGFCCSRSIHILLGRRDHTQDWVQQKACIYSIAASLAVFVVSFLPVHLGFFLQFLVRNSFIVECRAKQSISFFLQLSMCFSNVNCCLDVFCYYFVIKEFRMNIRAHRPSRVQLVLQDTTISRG

T6 sequence (P21554 whole entry): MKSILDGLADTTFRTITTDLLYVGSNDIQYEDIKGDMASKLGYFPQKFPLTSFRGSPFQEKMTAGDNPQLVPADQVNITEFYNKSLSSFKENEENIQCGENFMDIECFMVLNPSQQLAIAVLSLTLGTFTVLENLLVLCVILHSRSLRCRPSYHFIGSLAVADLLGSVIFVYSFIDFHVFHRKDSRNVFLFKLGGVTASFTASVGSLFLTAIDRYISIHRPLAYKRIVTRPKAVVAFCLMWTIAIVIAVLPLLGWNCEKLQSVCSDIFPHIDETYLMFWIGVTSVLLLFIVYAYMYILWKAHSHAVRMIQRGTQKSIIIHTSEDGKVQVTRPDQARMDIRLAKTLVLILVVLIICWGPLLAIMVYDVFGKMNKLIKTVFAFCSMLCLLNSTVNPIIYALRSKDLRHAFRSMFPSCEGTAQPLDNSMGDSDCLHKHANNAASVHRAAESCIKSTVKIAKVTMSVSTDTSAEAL
T3 sequence (P02675 whole entry, the tested form may be a part): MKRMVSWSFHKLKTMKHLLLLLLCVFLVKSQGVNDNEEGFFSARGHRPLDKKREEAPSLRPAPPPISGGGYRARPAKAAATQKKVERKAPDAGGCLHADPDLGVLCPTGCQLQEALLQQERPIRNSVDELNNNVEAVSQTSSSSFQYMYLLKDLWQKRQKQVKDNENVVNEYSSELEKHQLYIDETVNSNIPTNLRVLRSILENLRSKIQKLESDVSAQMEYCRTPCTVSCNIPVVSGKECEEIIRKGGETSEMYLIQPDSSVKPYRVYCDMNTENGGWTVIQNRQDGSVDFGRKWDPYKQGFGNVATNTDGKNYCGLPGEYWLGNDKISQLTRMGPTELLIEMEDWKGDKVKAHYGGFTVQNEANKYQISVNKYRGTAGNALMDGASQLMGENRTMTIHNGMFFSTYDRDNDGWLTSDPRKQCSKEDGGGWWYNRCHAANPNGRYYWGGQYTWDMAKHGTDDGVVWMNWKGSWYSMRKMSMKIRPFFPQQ
T8 sequence (Q9HC97 whole entry): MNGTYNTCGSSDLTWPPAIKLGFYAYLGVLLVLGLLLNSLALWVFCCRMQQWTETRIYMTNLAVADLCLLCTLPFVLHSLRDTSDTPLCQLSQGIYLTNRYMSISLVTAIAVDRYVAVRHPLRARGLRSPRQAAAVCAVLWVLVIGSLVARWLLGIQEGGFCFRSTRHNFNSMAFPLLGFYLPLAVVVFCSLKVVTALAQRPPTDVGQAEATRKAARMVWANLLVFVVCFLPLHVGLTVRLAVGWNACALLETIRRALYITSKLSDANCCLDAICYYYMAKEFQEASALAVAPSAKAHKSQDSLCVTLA
T7 sequence (P34972 whole entry): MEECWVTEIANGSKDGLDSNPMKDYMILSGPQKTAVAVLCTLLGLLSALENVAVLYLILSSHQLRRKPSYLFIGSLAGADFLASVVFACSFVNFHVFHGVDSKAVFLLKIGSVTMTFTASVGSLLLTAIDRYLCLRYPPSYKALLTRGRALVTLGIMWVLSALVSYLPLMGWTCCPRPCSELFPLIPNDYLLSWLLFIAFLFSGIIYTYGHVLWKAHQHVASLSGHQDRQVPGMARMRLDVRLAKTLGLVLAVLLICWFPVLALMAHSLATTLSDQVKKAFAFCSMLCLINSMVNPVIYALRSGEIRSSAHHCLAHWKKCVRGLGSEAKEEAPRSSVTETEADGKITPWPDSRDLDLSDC
Sequence of Glucose-6-phosphate 1-dehydrogenase (P11413 whole entry): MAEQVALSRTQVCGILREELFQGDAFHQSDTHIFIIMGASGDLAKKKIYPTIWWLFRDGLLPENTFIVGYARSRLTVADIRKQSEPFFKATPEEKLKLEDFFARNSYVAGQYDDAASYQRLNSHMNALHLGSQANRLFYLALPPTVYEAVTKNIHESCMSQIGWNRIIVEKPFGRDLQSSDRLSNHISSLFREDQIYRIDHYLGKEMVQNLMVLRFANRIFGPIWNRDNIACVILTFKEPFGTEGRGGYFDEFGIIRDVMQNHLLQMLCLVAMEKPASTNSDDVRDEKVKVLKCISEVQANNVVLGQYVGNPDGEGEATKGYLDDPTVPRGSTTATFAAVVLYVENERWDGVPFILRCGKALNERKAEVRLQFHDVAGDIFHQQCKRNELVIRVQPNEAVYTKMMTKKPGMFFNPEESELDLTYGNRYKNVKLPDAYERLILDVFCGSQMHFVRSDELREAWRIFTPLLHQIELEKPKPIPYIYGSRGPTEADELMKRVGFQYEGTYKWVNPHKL
Sequence of Induced myeloid leukemia cell differentiation protein Mcl-1 (Q07820 whole entry): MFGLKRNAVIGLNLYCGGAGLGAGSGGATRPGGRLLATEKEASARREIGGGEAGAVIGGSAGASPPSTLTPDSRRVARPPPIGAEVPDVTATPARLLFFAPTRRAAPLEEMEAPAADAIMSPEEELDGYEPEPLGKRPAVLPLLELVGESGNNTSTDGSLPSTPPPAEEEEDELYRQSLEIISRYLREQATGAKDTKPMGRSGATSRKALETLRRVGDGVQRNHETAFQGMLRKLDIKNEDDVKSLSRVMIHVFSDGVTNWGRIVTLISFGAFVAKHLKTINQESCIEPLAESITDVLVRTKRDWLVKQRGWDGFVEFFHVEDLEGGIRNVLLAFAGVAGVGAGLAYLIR
Sequence of Cyclin-dependent kinase 5/CDK5 activator 1 (Q00535 whole entry, the tested form may be a part): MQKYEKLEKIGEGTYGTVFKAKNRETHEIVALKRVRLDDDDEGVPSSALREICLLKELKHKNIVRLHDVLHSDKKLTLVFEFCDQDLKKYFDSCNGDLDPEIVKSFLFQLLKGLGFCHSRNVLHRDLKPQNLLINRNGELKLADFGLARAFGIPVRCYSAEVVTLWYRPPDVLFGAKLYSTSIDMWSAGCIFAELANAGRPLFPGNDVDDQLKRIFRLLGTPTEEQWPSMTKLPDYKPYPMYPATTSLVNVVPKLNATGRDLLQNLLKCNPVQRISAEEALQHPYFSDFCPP
Sequence of Cyclin-dependent kinase 5/CDK5 activator 1 (Q15078 whole entry, further chain, the tested form may be a part): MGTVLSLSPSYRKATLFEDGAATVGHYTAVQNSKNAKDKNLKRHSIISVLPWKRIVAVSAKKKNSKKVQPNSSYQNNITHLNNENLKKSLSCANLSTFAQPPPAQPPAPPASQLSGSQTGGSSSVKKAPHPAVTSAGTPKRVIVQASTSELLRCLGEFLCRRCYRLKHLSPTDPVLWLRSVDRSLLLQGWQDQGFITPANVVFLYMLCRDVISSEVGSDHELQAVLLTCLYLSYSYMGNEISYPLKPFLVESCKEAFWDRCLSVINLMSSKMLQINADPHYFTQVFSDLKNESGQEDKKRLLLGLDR
Sequence of Intestinal-type alkaline phosphatase (Mus musculus, UniProt P24822) (P24822 whole entry): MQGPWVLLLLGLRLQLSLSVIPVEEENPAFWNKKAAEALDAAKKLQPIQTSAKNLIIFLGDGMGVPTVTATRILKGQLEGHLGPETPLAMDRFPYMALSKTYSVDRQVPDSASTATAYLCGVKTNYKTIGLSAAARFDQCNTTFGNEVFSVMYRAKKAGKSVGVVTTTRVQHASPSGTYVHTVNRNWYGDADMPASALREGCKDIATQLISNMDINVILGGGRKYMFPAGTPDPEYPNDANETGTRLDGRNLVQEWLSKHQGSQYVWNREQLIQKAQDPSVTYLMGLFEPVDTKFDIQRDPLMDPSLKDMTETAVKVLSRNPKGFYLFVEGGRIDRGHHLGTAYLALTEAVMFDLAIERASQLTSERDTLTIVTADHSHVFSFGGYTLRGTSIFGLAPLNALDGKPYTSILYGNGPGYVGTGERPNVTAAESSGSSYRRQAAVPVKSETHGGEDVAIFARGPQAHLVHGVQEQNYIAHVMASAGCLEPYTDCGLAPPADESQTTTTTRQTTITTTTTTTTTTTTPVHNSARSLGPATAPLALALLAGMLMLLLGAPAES
Sequence of Intestinal-type alkaline phosphatase (Homo sapiens, UniProt P09923) (P09923 whole entry): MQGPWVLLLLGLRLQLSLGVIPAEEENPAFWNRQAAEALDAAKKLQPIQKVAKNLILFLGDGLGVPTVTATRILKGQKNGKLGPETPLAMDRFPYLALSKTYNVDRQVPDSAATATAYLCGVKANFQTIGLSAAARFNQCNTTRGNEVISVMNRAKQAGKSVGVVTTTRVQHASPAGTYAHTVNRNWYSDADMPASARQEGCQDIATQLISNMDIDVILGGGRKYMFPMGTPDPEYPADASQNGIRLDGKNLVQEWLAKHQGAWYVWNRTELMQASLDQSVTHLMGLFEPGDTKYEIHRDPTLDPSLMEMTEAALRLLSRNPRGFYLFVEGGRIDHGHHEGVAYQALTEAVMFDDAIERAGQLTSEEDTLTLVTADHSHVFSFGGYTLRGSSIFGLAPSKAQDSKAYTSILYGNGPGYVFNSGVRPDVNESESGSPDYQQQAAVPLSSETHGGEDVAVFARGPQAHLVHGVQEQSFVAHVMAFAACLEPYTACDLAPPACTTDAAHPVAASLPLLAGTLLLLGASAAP

Cc1ccc(-c2csc(N3CCN(c4cc5c(cc4Cl)nc(-c4ccncc4)n5CCOCCO)CC3)n2)cc1
active: AC50 [1] 231 µM | AC50 (CAAX prenyl protease 2) 6.2 µM

Oc1cc2c(cc1O)C1c3ccc(O)c(O)c3OCC1(O)C2 (centres undefined) [HAEMATOXYLIN]
active: EC50 [2] 85.7 µM | IC50 (Large T antigen) 4.66 µM | AC50 [4] 17.5 µM | IC50 (Fibrinogen beta chain [5]) 9.33 µM | EC50 [6] 50 µM | IC50 [9] 3.44 µM | EC50 [10] 62.1 µM | IC50 (Genome polyprotein) 17.4 µM
inactive: IC50 (cells) > 138 µM | IC50 [3] 66.5 µM | EC50 [7] 30.1 µM | EC50 [8] 72.8 µM | IC50 (Fibrinogen beta chain [11]) > 83.3 µM | IC50 (Major prion protein) 14 µM

Cc1ccc(C)c(-n2c(N)c(C(=O)N3CCCCC3)sc2=S)c1
inactive: IC50 [12] > 100 µM

Cc1[nH]nc(-c2ccc(OCCN3CCOCC3)cc2O)c1-c1ccc(Cl)cc1
active: IC50 (Cannabinoid receptor 1 [13]) 2.11 µM
inactive: EC50 (Cannabinoid receptor 2 [14]) > 32 µM | EC50 [15] > 32 µM | IC50 [16] > 32 µM | EC50 (Cannabinoid receptor 1 [17]) > 32 µM | IC50 (Cannabinoid receptor 2 [18]) 29.1 µM | IC50 [19] 19.2 µM
